Consider five compounds from patent publication US10494417B2, “Peptide inhibitors of BCR-ABL oligomerization” (University of Utah Research Foundation, priority 2014, dated 2019).

Entries after “also recorded” stand apart in the source; their conditions may differ.

Data set [1] has as its system CD34+ cells from newly diagnosed CML patients. In words: Colony forming assay of CD34+ cells from newly diagnosed CML patients. Format: cell-based, human. The following applies: day 14 CFU-GM; lentiviral CCmut3 or 2.5 μM imatinib vs EV. Here is the method:
Primary cells were seeded in Methocult H4230 (Stem Cell Technologies) as described previously (Fleischman, A. G., et al. (2011). Blood 118, 6392-6398). Briefly, lentivirus-infected (GFP^+) cells were isolated by FACS and resuspended in RPMI1640. Cells were plated in Methocult H4230 at 1,000 cells/mL supplemented with 1× StemSpan CC100 cytokine mix (StemCell Technologies) with or without TKI as indicated in each experiment. Plates were incubated at 37° C. in a 5% CO2 humidified incubator for 14 days. Colony forming units of granulocyte-macrophage (CFU-GM) were counted on day 14 using an inverted microscope.
Following selection of transfected cells by cell sorting, methylcellulose colony assays were performed by plating in 0.9% methylcellulose (Stem Cell Technologies; M3234 for Ba/F3 BCR-ABL1 native and mutant lines; M3434 for Ba/F3 parental cells; H4230 for CML patient samples). mCherry-positive Ba/F3 cells (1.1×10^3 cells/plate) or GFP-positive primary CML CD34+ cells (1×10^3 cells/plate) were seeded per dish in duplicate. In the case of CML patient samples, cells were plated in the presence of 1× StemSpan CC100 cytokine cocktail (StemCell Technologies). All cells were plated with or without the indicated TKI in three or more independent experiments. Plates were incubated at 37° C. in a 5% CO2 humidified incubator. Colonies were counted 7-14 days later in an area of 50 μm2 per dish using an inverted microscope.

For data set [2], the system named is CML CD34+ cells expressing BCR-ABL1T315I. Briefly: Liquid culture of primary T315I CML cells. Format: cell-based, human. As to conditions: CC^mut3 or increasing concentrations of ponatinib (FIG. 28C). Here is the method: Cell proliferation was assessed using the CellTiter 96® AQueous One Solution Cell Proliferation Assay (MTS assay, Promega) according to manufacturer instructions. Briefly, 5,000 viable cells were added to a single well in 96-well plate in 100 μL RPMI1640. Three independent samples were seeded in duplicate for each time point. […] In some experiments, cell proliferation was assessed using a Neubauer chamber and trypan blue dye exclusion.

For data set [3] the test system is unchanged. In words: Colony forming assay of primary CML CD34+ cells expressing BCR-ABL1T315I (samples R1, R2). Format: cell-based, human. The following applies: sample R1 (accelerated phase); lentiviral CCmut3 or 10 nM ponatinib vs EV. As to the method:
Mononuclear cells (MNCs) were separated from the peripheral blood of patients with newly diagnosed or therapy-resistant CML with a documented T315I mutation, using Ficoll (Nycomed, Oslo, Norway). Isolation of the CD34^+ fraction was done on an autoMACS Pro (Miltenyi Biotech). […] Cells were infected with lentivirus at a multiplicity of infection (MOI) of 5 for each construct at 24 and 48 hours following harvest (fresh cells) or thaw (frozen cells). Cells were sorted on a BD FACSAria cytometer after 72 h, and GFP-positive cells were returned to culture medium for future experiments. All patients gave their informed consent in accordance with the Declaration of Helsinki, and all studies with human specimens were approved by The University of Utah Institutional Review Board (IRB).
Briefly, lentivirus-infected (GFP^+) cells were isolated by FACS and resuspended in RPMI1640. […] Plates were incubated at 37° C. in a 5% CO2 humidified incubator for 14 days. Colony forming units of granulocyte-macrophage (CFU-GM) were counted on day 14 using an inverted microscope.
All cells were plated with or without the indicated TKI in three or more independent experiments. Plates were incubated at 37° C. in a 5% CO2 humidified incubator. Colonies were counted 7-14 days later in an area of 50 μm2 per dish using an inverted microscope.

The conditions of data set [4]: Phase III trial for first-line therapy in CML patients, discontinued; cited from earlier work.
Data set [5] relates to K562 cells. Briefly: Colony forming assay of transfected K562 cells. Format: cell-based, human. The following applies: for colony formation (transformative ability), in words: construct delivered as a gene by transfection, vs EGFP (and WT) control. Here is the method: Both EGFP and EGFP-CC^mut3 were transfected into separate groups of cells on day 0. One day following transfection, 1.0×10^6 cells per treatment group were collected and re-suspended in 1.0 mL of PBS. Through serial dilutions, 1.0×10^3 cells in IMDM (Isocove's modified Dulbecco's media) with 2% FBS were seeded into methylcellulose medium in the absence of cytokines (MethoCult H4230 for K562 cells and MethoCult M3234 for p210 and p210-T315I cells) or in the presence of cytokines (MethoCult GF M3434 for parental Ba/F3 cells). Ponatinib was then added in the correct molar amounts (0, 100 pM, 1 nM, or 10 nM) to the methylcellulose medium. Colonies formed were counted after 7 days of incubation. All reagents were purchased from Stem Cell Technologies, Vancouver, BC, Canada. Assay was run three separate times (n=3) in duplicate.
(§1) Briefly, K562 or Ba/F3-p210 cells were transfected according to the protocol above. One day following transfection, 1.0×10^6 cells per transfection group were collected and re-suspended in sterile PBS. […] Finally, 1.1 mL of cell/methylcellulose mixture was seeded in duplicate and allowed to grow at 37° C. and 5% CO2 for 7 days. Colony formation was assessed by counting colonies in two 200 μm2 areas on the plate. Experiments were performed once in duplicate (n=1 in duplicate). All kit reagents and media were purchased from Stem Cell Technologies (Vancouver, BC, Canada).

Data set [6] deals with K562 cells. In words: Nuclear (DNA) segmentation apoptosis assay in transfected K562 cells. Format: cell-based, human. The following applies: 48 h, vs EGFP control. As to the method:
CC^mut3 was then tested for its ability to induce apoptosis in K562 cells. Apoptosis was observed using 3 different methods: 1) nuclear segmentation; 2) induction of the effector Caspase-3/7; and 3) 7AAD/Annexin V staining.
Nuclear segmentation analysis was performed as previously described (16). Briefly, immediately prior to cellular analysis, 2-well live cell chambers were treated for 15 min with poly-L-lysine (Sigma-Aldrich, St. Louis, Mo., USA), to allow cell adhesion in the wells. Forty-eight h following transfection, the transfected K562 cells were transferred to the pretreated 2-well live cell chambers. Cells were incubated for 15 min at 37° C. following the addition of 0.3 μL Hoechst H33342 nuclear stain (Life Technologies, Carlsbad, Calif., USA). Cells were then imaged using an inverted fluorescence microscope (Olympus IX701F, Scientific Instrument Co., Sunnyvale, Calif., USA) equipped with an F-view Monochrome CCD camera. Fields of view were selected based on EGFP fluorescence when viewing using a 40× oil immersion objective. Nuclei from cells that were positively transfected (positive for EGFP fluorescence) were categorized as either healthy (round or kidney-shaped nuclei) or segmented (punctate staining of nuclei), and the percentage of cells with segmented DNA was calculated (n=3 in replicate).

Data set [7] concerns Ba/F3 cells expressing native BCR-ABL1 (Ba/F3-p210). Briefly: Colony forming assay of transfected Ba/F3-p210 cells. Format: cell-based, mouse. The following applies: cappedHelix2mut3 study, n=1, data not shown. As to the method: as §1
The test system of data set [8] is K562 cells. In words: Proliferation/viability of transfected K562 cells (trypan blue exclusion). As to conditions: 72 h following transfection, trypan blue exclusion, vs mCherry control, n=1. Format: cell-based, human. As to the method:
K562 cells, human leukemia Bcr-Abl^+ cells (gifted from Kojo Elenitoba-Johnson, University of Michigan), were grown in RPMI 1640 media supplemented with 10% FBS, 1% penicillin-streptomycin-glutamine, and 0.1% gentamicin (complete medium). […] Transfections were carried out two days following cell passaging. Then, 2.0×10^6 cells were collected and transfected with 6 μg pf pEGFP, pEGFP-CC^mut3, pmCherry, or pmCherry-CC^mut3 according to the Cell Line Nucleofector Kit V protocol, program T-013, using the Amaxa Nucleofector II (Lonza Group, Basel, Switzerland).
Cell counts were performed using a standard light microscope.
Two days following cell passaging, 2.0×10^6 cells were collected by centrifugation at 500×g for 10 min for each transfection group. Following cell collection, 6 lig DNA (pEGFP, pEGFP-CC, pEGFP-CCmut3, pEGFP-Helix2WT, pEGFP-Helix2mut3, pmCherry, pmCherry-CCmut3, or pmCherry-CappedHelix2mut3) was transfected into cells according to the Cell Line Nucleofector® Kit V protocol (program T-013) using the Amaxa Nucleofector II (Lonza Group, Basel, Switzerland). Following transfection, the DNA/cell mixture was added to 10 mL Complete RPMI 1640 media and allowed to incubate at 37° C. for 24, 48, or 72 h until analysis, depending on the assay.
(§2) Forty-eight or 72 h following transfection, 100 μL of treated K562 or Ba/F3-p210 cells was mixed with 100 μL trypan blue solution (Life Technologies). The numbers of viable cells (those impermeable to the trypan blue dye) from four different quadrants in an INCYTO™ C-CHIP™ Neubauer hemacytometer (VWR International, Radnor, Pa., USA) were counted using a standard light microscope. Quadrant counts were then averaged to obtain the number of viable cells per mL. For experiments using the Helix2mut3 construct, counts were performed on one aliquot per transfection (n=3 in replicate). In experiments involving the CappedHelix2mut3 construct, counts were performed three times using separate 100 pt aliquots from one transfection (n=1 in triplicate).

A further data set relates to Ba/F3-P210 cells. Briefly: Viability of transfected Ba/F3-p210 cells (trypan blue exclusion). The following applies: 72 h following transfection, vs mCherry control, n=1. Format: cell-based, mouse. As to the method: Two days following cell passaging, 3.0×10^6 cells were collected by centrifugation at 750×g for 10 min for each transfection group. Following collection, 4 μg DNA was transfected into cells according to the Cell Line Nucleofector® Kit V protocol (program X-001) using the Amaxa Nuelcofector II. Following nucleofection, the DNA/cell mixture was added to 500 μL plain RPMI and incubated for 20 min. After incubation, the 500 μL cell/DNA/RPMI mixture was added to complete RPMI 1640 media and allowed to incubate at 37° C. for 72 h until analysis.
as §2

`Cc1ccc(NC(=O)c2ccc(CN3CCN(C)CC3)cc2)cc1Nc1nccc(-c2cccnc2)n1` [imatinib, reference compound]: the “colony formation, in words” value in data set [1] was “equally effective in reducing colony number”.
Take `Cc1ccc(C(=O)Nc2ccc(CN3CCN(C)CC3)c(C(F)(F)F)c2)cc1C#Cc1cnc2cccnn12` [ponatinib, 3-[2-(imidazo[1,2-b]pyridazin-3-yl)ethynyl]-4-methyl-N-{4-[(4-methylpi-perazin-1-yl)methyl]-3-(trifluoromethyl)phenyl}benzamide, reference compound]: the “effect in liquid culture” value in [2] was “no effect”. Besides, in data set [3], the “reduction of colony formation” value is reported as 47%. The “patients with serious side effects” value in data set [4] is recorded as around 12%.
For “helix2 domain: helix2 domain (amino acids 28-67) with the CC^mut3 mutations, delivered as a gene via nucleofection (MELRSVGDIEQELERAEARIRRDEQRVNQERFRMIYLETLLAKEKKSYDR)”, the “colony formation (transformative ability), in words” value with K562 cells [5] is “sufficient to inhibit colony formation in K562 cells”.
For the compound “Helix2mut3: residues 23-72: α-helix2 of BCR-ABL CC domain plus five flanking residues each end, with CCmut3 mutations (MELRSVGDIEQELERAEARIRRDEQRVNQERFRMIYLETLLAKEKKSYDR)”, the “induction of apoptosis (nuclear/DNA segmentation)” value in the data set with K562 cells [6] is “outperformed negative control EGFP; also recorded: statistically significant increase in apoptosis; also recorded: apoptosis was induced to a similar extent between both CCmut3 and Helix2mut3; also recorded: significantly induced apoptosis”. In addition, in the data set with K562 cells [5] (7 days after seeding, normalized to EGFP control, n=1 in duplicate), the “colony formation, of EGFP control” value is listed as “approximately 67%”. The “colony formation (transformative ability), in words” value in the data set with K562 cells [5] was “outperformed negative control EGFP; also recorded: showed inhibitory activity; also recorded: prevented outgrowth of colonies to a greater extent than the EGFP control, however, not as well as the full length CCmut3”.
As for “cappedHelix2mut3: residues 27-68: α-helix2 of BCR-ABL CC domain with capping residues S27 and G68 and CCmut3 mutations (SVGDIEQELERAEARIRRDEQRVNQERFRMIYLETLLAKEKG)”, the colony formation entry in data set [7] is “same pattern as in the cell proliferation studies”; in the data set with K562 cells [5] (cappedHelix2mut3 study, n=1, data not shown) it was “failed to out-perform the negative control; also recorded: same pattern as in the cell proliferation studies”. For the same compound, in the data set on K562 cells [8], the “proliferation/viability of K562 cells” value is given as “failed to out-perform the negative control; also recorded: did not display inhibition of cell proliferation; also recorded: no evidence of BCR-ABL inhibition”. In the data set with Ba/F3-P210 cells, the “proliferation/viability of Ba/F3-p210 cells” value was “replicated to a similar extent; also recorded: no evidence of BCR-ABL inhibition”.
